Reference: ChEMBL document CHEMBL2375211, “2-methoxyjuglone induces apoptosis in HepG2 human hepatocellular carcinoma cells and exhibits in vivo antitumor activity in a H22 mouse hepatocellular carcinoma model” (J Nat Prod, 2013)
Values after ≈ are worked out from the molar mass of the structure shown. Active and inactive are the calls of the source. The rule behind the calls is not given here.

Key:
HepG2 [1] = assay: Induction of apoptosis in human HepG2 cells assessed as PARP cleavage at 1.6 to 4.8 ug/mL after 24 hrs by Western blot analysis; assay type: functional, cell-based
HepG2 [2] = assay: Cell cycle arrest in human HepG2 cells assessed as accumulation at G2/M phase at 6.4 ug/mL after 48 hrs by propidium iodide staining-based flow cytometric analysis (reference value: 5%); assay type: functional
HepG2 [3] = assay: Cell cycle arrest in human HepG2 cells assessed as accumulation at G2/M phase at 4.8 ug/mL after 48 hrs by propidium iodide staining-based flow cytometric analysis (reference value: 5%); assay type: functional
HepG2 [4] = assay: Cytotoxicity against human HepG2 cells assessed as decrease in cell viability at 1.6 to 8 ug/mL by MTT assay; assay type: functional, cell-based; conditions: TDE = time-dependent effect
HepG2 [5] = assay: Induction of apoptosis in human HepG2 cells assessed as mitochondrial cytochrome c-dependent caspase-3 activation at 1.6 to 4.8 ug/mL after 24 hrs by Western blot analysis; assay type: functional, cell-based
HepG2 [6] = assay: Cell cycle arrest in human HepG2 cells assessed as accumulation at S phase at 4.8 ug/mL after 48 hrs by propidium iodide staining-based flow cytometric analysis (reference value: 31%); assay type: functional
HepG2 [7] = assay: Cell cycle arrest in human HepG2 cells assessed as accumulation at G1 phase at 1.6 ug/mL after 48 hrs by propidium iodide staining-based flow cytometric analysis (reference value: 64%); assay type: functional
HepG2 [8] = assay: Induction of apoptosis in human HepG2 cells assessed as increase in mitochondrial cytochrome c release after 24 hrs by Western blot analysis; assay type: functional, cell-based
HepG2 [9] = assay: Cell cycle arrest in human HepG2 cells assessed as accumulation at S phase at 3.2 ug/mL after 24 hrs by propidium iodide staining-based flow cytometric analysis (reference value: 46%); assay type: functional
HepG2 [10] = assay: Cell cycle arrest in human HepG2 cells assessed as accumulation at G1 phase at 3.2 ug/mL after 48 hrs by propidium iodide staining-based flow cytometric analysis (reference value: 64%); assay type: functional
HepG2 [11] = assay: Cell cycle arrest in human HepG2 cells assessed as accumulation at sub-G1 phase at 3.2 ug/mL after 48 hrs by propidium iodide staining-based flow cytometric analysis (reference value: 3%); assay type: functional
HepG2 [12] = assay: Cell cycle arrest in human HepG2 cells assessed as accumulation at sub-G1 phase at 8 ug/mL after 48 hrs by propidium iodide staining-based flow cytometric analysis (reference value: 3%); assay type: functional
HepG2 [13] = assay: Cell cycle arrest in human HepG2 cells assessed as accumulation at S phase at 6.4 ug/mL after 24 hrs by propidium iodide staining-based flow cytometric analysis (reference value: 46%); assay type: functional
HepG2 [14] = assay: Cytotoxicity against human HepG2 cells assessed as cell viability after 72 hrs by MTT assay; assay type: functional, cell-based; conditions: HepG2, 72 h
HepG2 [15] = assay: Cell cycle arrest in human HepG2 cells assessed as accumulation at G2/M phase at 6.4 ug/mL after 24 hrs by propidium iodide staining-based flow cytometric analysis (reference value: 9%); assay type: functional
HepG2 [16] = assay: Cell cycle arrest in human HepG2 cells assessed as accumulation at G2/M phase at 1.6 ug/mL after 24 hrs by propidium iodide staining-based flow cytometric analysis (reference value: 9%); assay type: functional
HepG2 [17] = assay: Cell cycle arrest in human HepG2 cells assessed as accumulation at G1 phase at 1.6 ug/mL after 24 hrs by propidium iodide staining-based flow cytometric analysis (reference value: 45%); assay type: functional
HepG2 [18] = assay: Cell cycle arrest in human HepG2 cells assessed as accumulation at G2/M phase at 4.8 ug/mL after 24 hrs by propidium iodide staining-based flow cytometric analysis (reference value: 9%); assay type: functional
HepG2 [19] = assay: Cell cycle arrest in human HepG2 cells assessed as accumulation at G1 phase at 6.4 ug/mL after 48 hrs by propidium iodide staining-based flow cytometric analysis (reference value: 64%); assay type: functional
HepG2 [20] = assay: Cell cycle arrest in human HepG2 cells assessed as accumulation at sub-G1 phase at 8 ug/mL after 24 hrs by propidium iodide staining-based flow cytometric analysis (reference value: 4%); assay type: functional
HepG2 [21] = assay: Cell cycle arrest in human HepG2 cells assessed as accumulation at G2/M phase at 8 ug/mL after 24 hrs by propidium iodide staining-based flow cytometric analysis (reference value: 9%); assay type: functional
HepG2 [22] = assay: Cytotoxicity against human HepG2 cells assessed as decrease in cell viability after 24 to 72 hrs by MTT assay; assay type: functional, cell-based
HepG2 [23] = assay: Induction of apoptosis in human HepG2 cells assessed as decrease in Bcl-2 level at 1.6 to 4.8 ug/mL after 24 hrs by Western blot analysis; assay type: functional, cell-based
HepG2 [24] = assay: Cell cycle arrest in human HepG2 cells assessed as accumulation at G1 phase at 8 ug/mL after 48 hrs by propidium iodide staining-based flow cytometric analysis (reference value: 64%); assay type: functional
HepG2 [25] = assay: Cell cycle arrest in human HepG2 cells assessed as accumulation at G2/M phase at 3.2 ug/mL after 48 hrs by propidium iodide staining-based flow cytometric analysis (reference value: 5%); assay type: functional
HepG2 [26] = assay: Induction of apoptosis in human HepG2 cells assessed as increase in Bax level after 24 hrs by Western blot analysis; assay type: functional, cell-based
HepG2 [27] = assay: Cell cycle arrest in human HepG2 cells assessed as accumulation at G1 phase at 4.8 ug/mL after 48 hrs by propidium iodide staining-based flow cytometric analysis (reference value: 64%); assay type: functional
Mus musculus = assay: Toxicity in Kunming mouse allografted with mouse H22 cells assessed as decrease in body weight at 0.25 to 1 mg/kg/day, ip measured every day for 8 days; assay type: organism-based; design: route intraperitoneal; conditions: in vivo, 192 h
HepG2 [28] = assay: Cell cycle arrest in human HepG2 cells assessed as accumulation at G1 phase at 6.4 ug/mL after 24 hrs by propidium iodide staining-based flow cytometric analysis (reference value: 45%); assay type: functional
HepG2 [29] = assay: Induction of apoptosis in human HepG2 cells assessed as membrane damage at 4.8 to 8 ug/mL after 24 hrs by acridine orange/ethidium bromide staining-based fluorescence microscopic analysis; assay type: functional, cell-based
HepG2 [30] = assay: Cell cycle arrest in human HepG2 cells assessed as accumulation at sub-G1 phase at 4.8 ug/mL after 48 hrs by propidium iodide staining-based flow cytometric analysis (reference value: 3%); assay type: functional

## COC1=CC(=O)c2c(O)cccc2C1=O
HepG2 [1]
  Activity: Active
HepG2 [2]
  Activity: 2%
HepG2 [3]
  Activity: 2%
HepG2 [4]
  Activity: tde
HepG2 [5]
  Activity: Active
HepG2 [6]
  Activity: 66%
HepG2 [7]
  Activity: 50%
HepG2 [8]
  Activity: Dose-dependent effect
HepG2 [9]
  Activity: 64%
HepG2 [10]
  Activity: 35%
HepG2 [11]
  Activity: 4%
HepG2 [12]
  Activity: 33%
HepG2 [13]
  Activity: 61%
HepG2 [14]
  IC50: 2.7 µg/mL (≈ 13.2 µM)
HepG2 [15]
  Activity: 2%
HepG2 [16]
  Activity: 1%
HepG2 [17]
  Activity: 37%
HepG2 [18]
  Activity: 0%
HepG2 [19]
  Activity: 46%
HepG2 [20]
  Activity: 7%
HepG2 [21]
  Activity: 0%
HepG2 [22]
  Activity: Dose-dependent effect
HepG2 [23]
  Activity: Active
HepG2 [24]
  Activity: 54%
HepG2 [25]
  Activity: 1%
HepG2 [26]
  Activity: Dose-dependent effect
HepG2 [27]
  Activity: 32%
Mus musculus
  Activity: Non-toxic
HepG2 [28]
  Activity: 37%
HepG2 [29]
  Activity: Active
HepG2 [30]
  Activity: 6%
